The experiment concerns the target HLA-DR15 (DRB1*1501) (Homo sapiens, UniProt P01903+P01911). Put plainly: biochemical. The experiment is classed as binding.

Usually IC50 stands for the concentration at which inhibition is half-maximal. Read a high IC50 as lower potency. `CC(C)C[C@H](NC(=O)[C@H](Cc1ccc(O)cc1)NC(=O)[C@H](C)NC(=O)[C@H](CCCNC(=N)N)NC(=O)[C@H](CC(C)C)NC(=O)[C@H](CCC(N)=O)NC(=O)[C@H](CCC(=O)O)NC(=O)[C@H](C)NC(=O)[C@@H](N)CCC(=O)O)C(=O)N[C@@H](CC(=O)O)C(=O)NCC(=O)N[C@H](C(=O)NCC(=O)N[C@H](C(=O)N[C@@H](CCC(=O)O)C(=O)O)C(C)C)[C@@H](C)O` [A3 152–166]: the IC50 was determined as 0.018 µM.

Values taken from PMC9528225 (Molecular Immunology, 2012).
